One test deals with T1, recombinant Plk1 (Homo sapiens, UniProt P53350).
T1 construct: The full-length Plk1 protein is expressed in insect cells as an N-terminal 6His tag fusion; 6His (N); made in house; host or cells: insect cells (Plk1); E. coli (GST-Cdc25C substrate)
In words: In vitro Plk1 enzyme assay (SPA). In kind it is biochemical. The source says: The assay uses Scintillation Proximity Assay (SPA) technology (Antonsson et al., Analytical Biochemistry, 1999, 267: 294-299) to determine the ability of test compounds to inhibit phosphorylation by recombinant Plk1. The full-length Plk1 protein is expressed in insect cells as an N-terminal 6His tag fusion and purified by standard Nickel chelate purification techniques using the His tag.
The amino terminal fragment of Cdc25C (encoding residues 1-165) is expressed in E. coli as a GST fusion and purified using the GST tag by standard purification techniques.
Test compounds were prepared as 10 mM stock solutions in dimethyl sulphoxide (DMSO) and diluted into water as required to give a range of final assay concentrations. Aliquots (5 μl) of each compound dilution were dispensed into a well of a 384-well flat bottom white polystyrene plate (Matrix, Catalogue No. 4316). A 35 μl mixture of recombinant purified Plk1 enzyme (12 ng/well), purified GST-Cdc25C (150 ng/well), adenosine triphosphate (ATP; 64 nM), ^33P-labelled adenosine triphosphate (^33P-ATP; 60 nCi/well) in a buffer solution [comprising 50 mM HEPES pH7.5 buffer, 10 mM manganese chloride (MnCl2), 1 mM dithiothreitol (DTT), 1 mg/ml bovine serum albumin (BSA), 100 μM sodium vanadate (Na3VO4), 100 μM sodium fluoride (NaF) and 10 mM sodium glycerophosphate] was added and the reactions incubated at ambient temperature for 90 minutes.
Reactions were stopped by addition of EDTA (110 mM) and the Cdc25C substrate captured via its GST tag to anti-GST antibody (Molecular Probes, Cat No A-5800) coated Protein A PVT SPA beads (Amersham Biosciences, Catalogue No. RPQ0019; 250 μg/well) in 50 mM HEPES pH7.5 buffer containing 0.05% (w/v) sodium azide and incubated for up to 2 hours, followed by the addition of 20 μl of 4M caesium chloride (final assay concentration of 1M). Plates were then left in the dark overnight before counting on a Packard TopCount NXT.
Radiolabelled phosphorylated substrate is formed in situ as a result of Plk1 mediated phosphorylation. The SPA beads contain a scintillant that can be stimulated to emit light. This stimulation only occurs when a radiolabelled phosphorylated substrate is bound to the surface of the coated SPA bead causing the emission of blue light that can be measured on a scintillation counter. Accordingly, the extent of Plk1 mediated Cdc25C phosphorylation was assessed. The raw assay data were then analysed by non-linear regression analysis and Plk1 enzyme inhibition for a given test compound is expressed as an IC50 value.

Test [1] relates to human colon tumour cell line HT29. Put plainly: Cellular assay: phosphohistone H3 mitotic marker in HT29 cells. In kind it is cell-based. The following applies: HT-29, 24 h, phosphohistone H3 staining. Here is the method:
Chromosome condensation in mitosis is accompanied by phosphorylation of histone H3 on serine 10. Dephosphorylation begins in anaphase and ends at early telophase, thus histone H3 serine 10 phosphorylation acts as an excellent mitotic marker and is used to determine the ability of compounds of the present invention to block cells in mitosis.
Cells of the human colon tumour cell line HT29 were seeded into 96 well black plates (Costar, Catalogue No 3904) in phenol red free Dulbecco's Modified Eagles Medium (DMEM) supplemented with 10% (v/v) FCS and 1% (v/v) L-Glutamine and incubated overnight at 37° C. […] Cells were again washed with PBS and incubated with 50 μl secondary antibody (1:1000 Alexa Fluor 488 goat anti-rabbit (Molecular Probes Cat No A-11008) and Hoechst (1:10000) diluted in PBS 0.05% (v/v) Tween 20 and left for 1 hour at room temperature in the dark. Cells were washed with PBS then covered with fresh PBS and stored at 4° C. until analysis. Images are acquired and analysed in an automated manner using the Cellomics ArrayScan II or VTi. In this assay both hoechst and phosphohistone H3 staining are measured. Hoechst staining generates a valid cell count while phosphohistone H3 staining determines the number of mitotic cells. […] The raw assay data were analysed by non-linear regression analysis and used to determine an IC50 value for each compound.

Where [2] appears, read: Plk1 enzyme, class symbols for IC50, read-out: Kinase Inhibition.

Eight compounds from patent US20090312336A1, “DIHYDROPTERIDINE COMPOUNDS AS ANTI PROLIFERATIVE AGENTS” (ASTRAZENECA AB, priority 2006, published 2009) can be followed below.

Molecules are shown by their SMILES. Read-outs that look alike come from different tables or passages of the source.

T1 sequence (P53350 whole entry, the tested form may be a part): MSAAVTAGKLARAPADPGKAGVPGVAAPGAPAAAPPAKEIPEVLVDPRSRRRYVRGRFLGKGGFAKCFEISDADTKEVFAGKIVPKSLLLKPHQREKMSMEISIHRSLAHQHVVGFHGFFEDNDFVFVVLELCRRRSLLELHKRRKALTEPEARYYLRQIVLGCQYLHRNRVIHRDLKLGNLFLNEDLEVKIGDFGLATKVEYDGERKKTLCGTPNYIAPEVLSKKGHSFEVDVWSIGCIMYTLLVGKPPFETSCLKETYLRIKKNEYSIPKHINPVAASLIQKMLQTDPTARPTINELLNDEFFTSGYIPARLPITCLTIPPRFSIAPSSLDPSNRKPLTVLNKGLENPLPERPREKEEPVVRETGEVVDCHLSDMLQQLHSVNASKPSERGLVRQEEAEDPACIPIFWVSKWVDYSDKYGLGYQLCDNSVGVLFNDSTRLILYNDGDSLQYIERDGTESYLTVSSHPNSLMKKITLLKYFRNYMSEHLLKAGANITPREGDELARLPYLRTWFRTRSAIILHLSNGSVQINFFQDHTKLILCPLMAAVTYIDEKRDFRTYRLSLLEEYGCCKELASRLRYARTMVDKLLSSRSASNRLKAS

`COc1cc(C(=O)NC2CCN(C)CC2)ccc1Nc1ncc2c(n1)N(C1CCCC1)[C@H](C1CC1)CN2C` [Example 6, 4-{[(7R)-8-Cyclopentyl-7-cyclopropyl-5-methyl-5,6,7,8-tetrahydropteridin-2-yl]amino}-3-methoxy-N-(1-methylpiperidin-4-yl)benzamide]: the IC50 at recombinant Plk1 (Plk1 enzyme assay, read-out: IC50 value in the enzyme assay) is 0.699 µM; on recombinant Plk1 (setting [2]), < 3 µM; in test [1], 0.256 µM.

`CCOc1cc(C(=O)NC2CCN(C)CC2)ccc1Nc1ncc2c(n1)N(C1CCCC1)[C@H](CC)CN2C` [Example 8, 4-[[(7R)-8-Cyclopentyl-7-ethyl-5-methyl-6,7-dihydropteridin-2-yl]amino]-3-ethoxy-N-(1-methyl-4-piperidyl)benzamide]: the IC50 at recombinant Plk1 (setting [2]) was < 3 µM.

In the case of `CC[C@@H]1CN(CC)c2cnc(Nc3ccc(C(=O)NC4CCN(C)CC4)cc3OC)nc2N1C1CCCC1` [Example 5, 4-[[(7R)-8-Cyclopentyl-5,7-diethyl-6,7-dihydropteridin-2-yl]amino]-3-methoxy-N-(1-methyl-4-piperidyl)benzamide], the IC50 on recombinant Plk1 (setting [2]) is < 3 µM.

Turning to `CC[C@@H]1CN(C)c2cnc(Nc3ccc(CNC4CCN(C)CC4)c(F)c3)nc2N1C1CCCC1` [Example 4, (7R)-8-Cyclopentyl-7-ethyl-N-[3-fluoro-4-[[(1-methyl-4-piperidyl)amino]methyl]phenyl]-5-methyl-6,7-dihydropteridin-2-amine], the IC50 on recombinant Plk1 (setting [2]) is 3 to 6 µM.

Take `CC[C@@H]1CN(C)c2cnc(Nc3ccc(C(=O)NC4CCN(C)CC4)cc3OC)nc2N1C1CCCC1` [Example 1, 4-[[(7R)-8-Cyclopentyl-7-ethyl-5-methyl-6,7-dihydropteridin-2-yl]amino]-3-methoxy-N-(1-methyl-4-piperidyl)benzamide]: at recombinant Plk1 (setting [2]), the IC50 is < 3 µM.

As for `CCC[C@@H]1CN(C)c2cnc(Nc3ccc(C(=O)NC4CCN(C)CC4)cc3OC)nc2N1C1CCCC1` [Example 7, 4-{[(7R)-8-Cyclopentyl-5-methyl-7-propyl-5,6,7,8-tetrahydropteridin-2-yl]amino}-3-methoxy-N-(1-methylpiperidin-4-yl)benzamide], the IC50 on recombinant Plk1 (setting [2]) was < 3 µM.

For `CC[C@@H]1CN(C)c2cnc(Nc3ccc(CNCC(C)(C)CN(C)C)cc3OC)nc2N1C1CCCC1` [Example 3, N-[[4-[[(7R)-8-Cyclopentyl-7-ethyl-5-methyl-6,7-dihydropteridin-2-yl]amino]-3-methoxy-phenyl]methyl]-N′,N′,2,2-tetramethyl-propane-1,3-diamine], the IC50 at recombinant Plk1 (setting [2]) was in the range of 6 to 15 µM.

For the compound `CC[C@@H]1CN(C)c2cnc(Nc3ccc(C(=O)NCC(C)(C)CN(C)C)cc3OC)nc2N1C1CCCC1` [Example 2, 4-[[(7R)-8-Cyclopentyl-7-ethyl-5-methyl-6,7-dihydropteridin-2-yl]amino]-N-(3-dimethylamino-2,2-dimethyl-propyl)-3-methoxy-benzamide], at recombinant Plk1 (setting [2]), the IC50 is < 3 µM.
